Patent US11702422B2, “Imidazopyridazines as modulators of IL-17” (Janssen Pharmaceutica NV, priority 2020, dated 2023)

Key:
[1] = biological target: IL-17A(FLAG-Tagged): IL-17RA(His-Tagged) (Homo sapiens, UniProt Q16552, K93Q); experiment: IL-17A(FLAG-Tagged): IL-17RA(His-Tagged) Binding Disruption Eu-HTRF Assay; conditions: IL-17A/IL-17RA binding disruption, simple average if tested more than once
Method in brief: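 IC50 comes from a one-site competition fit of the HTRF 665/620 nm ratio. Compound dilutions (2-fold, 22 points) were held 1 h rt with FLAG-tagged IL-17A dimer, then His-tagged IL-17RA plus Eu-cryptate anti-FLAG and D2 anti-His antibodies were added for 2 h rt.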

[2] = test system: IL-17A-induced G-CSF production in human normal keratinocyte (NHK); experiment: NHK Assay: IL-17A-induced G-CSF production in human normal keratinocytes; type: cell-based; conditions: 24 h, adult normal human keratinocytes, IL-17A 5 ng/mL, simple average if tested more than once
Method in brief: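 HTRF read-out of supernatant G-CSF, quantified from a standard curve, gave IC50 values. Adult keratinocytes, 3000-4000 cells/well, received human IL-17A (5 ng/mL final) pre-mixed 1 h at rt with compound, in 5% FBS and 0.2% DMSO, 24 h at 37° C.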

UniProt Q16552, sequence (Q16552 with tags, fused parts or gaps K93Q): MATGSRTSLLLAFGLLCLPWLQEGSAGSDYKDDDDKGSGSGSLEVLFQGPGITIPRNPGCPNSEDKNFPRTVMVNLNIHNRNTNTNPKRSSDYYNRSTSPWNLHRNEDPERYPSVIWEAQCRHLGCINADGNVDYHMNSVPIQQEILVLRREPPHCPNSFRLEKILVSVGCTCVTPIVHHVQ

IC50 [1] [nM] | SMILES | IC50 ([2]; Homo sapiens, Keratinocyte) [nM] | IC50 [2] [nM]
160 | CC(C)n1nccc1C(=O)N[C@H](c1cn2ncc([C@H](NC(=O)CC34CC(F)(C3)C4)C3CC3)cc2n1)C1CCC(F)(F)CC1 [Example 273, N—((S)-(7-((R)-Cyclopropyl(2-(3-fluorobicyclo[1.1.1]pentan-1-yl)acetamido)methyl)imidazo[1,2-b]pyridazin-2-yl)(4,4-difluorocyclohexyl)methyl)-1-isopropyl-1H-pyrazole-5-carboxamide] | 71 | 
46 | CC(C)c1nonc1C(=O)N[C@H](c1cn2ncc(C(NC(=O)CCC(F)(F)F)C(C)C)cc2n1)C1CCC(F)(F)CC1 (single isomer, unassigned) [Example 511, N—((S)-(4,4-Difluorocyclohexyl)(7-((S*)-2-methyl-1-(4,4,4-trifluorobutanamido)propyl)imidazo[1,2-b]pyridazin-2-yl)methyl)-4-isopropyl-1,2,5-oxadiazole-3-carboxamide] | 21 | 
2100 | CC(=O)N(C)CCn1ncc(C(=O)N[C@H](c2cn3ncc([C@H](NC(=O)CCC(F)(F)F)C4CC4)cc3n2)C2CCC(F)(F)CC2)n1 [Example 114, N—((S)-(7-((R)-Cyclopropyl(4,4,4-trifluorobutanamido)methyl)imidazo[1,2-b]pyridazin-2-yl)(4,4-difluorocyclohexyl)methyl)-2-(2-(N-methylacetamido)ethyl)-2H-1,2,3-triazole-4-carboxamide] | 370 | 
120 | CC(CC(=O)N[C@@H](c1cnn2cc([C@@H](NC(=O)c3ccnn3C(C)C)C3CCC(F)(F)CC3)nc2c1)C1CC1)C(F)F (stereo partly drawn) [Example 262, N-((1S)-(7-((1R)-Cyclopropyl(4,4-difluoro-3-methylbutanamido)methyl)imidazo[1,2-b]pyridazin-2-yl)(4,4-difluorocyclohexyl)methyl)-1-isopropyl-1H-pyrazole-5-carboxamide] | 120 | 
370 | Cc1nonc1C(=O)N[C@H](c1cn2ncc([C@H](NC(=O)CC(C)(C)C(F)F)C3CC3)cc2n1)C1CCC(F)(F)CC1 [Example 312, N—((S)-(7-((R)-Cyclopropyl(4,4-difluoro-3,3-dimethylbutanamido)methyl)imidazo[1,2-b]pyridazin-2-yl)(4,4-difluorocyclohexyl)methyl)-4-methyl-1,2,5-oxadiazole-3-carboxamide] | 3200 | 
210 | Cc1nonc1C(=O)N[C@H](c1cn2ncc([C@H](NC(=O)CC(C)C(F)F)C3CC3)cc2n1)C1CCC(F)(F)CC1 (single isomer, unassigned) [Example 265, N—((S)-(7-((R)-Cyclopropyl((S*)-4,4-difluoro-3-methylbutanamido)methyl)imidazo[1,2-b]pyridazin-2-yl)(4,4-difluorocyclohexyl)methyl)-4-methyl-1,2,5-oxadiazole-3-carboxamide] |  | 1100
130 | CC(C)n1nccc1C(=O)N[C@H](c1cn2ncc([C@H](NC(=O)CC(C)(F)F)C3CC3)cc2n1)C1CCC(F)(F)CC1 [Example 261, N—((S)-(7-((R)-Cyclopropyl(3,3-difluorobutanamido)methyl)imidazo[1,2-b]pyridazin-2-yl)(4,4-difluorocyclohexyl)methyl)-1-isopropyl-1H-pyrazole-5-carboxamide] | 430 | 
34 | O=C(CCC(F)(F)F)NC(c1cnn2cc([C@@H](NC(=O)c3nnsc3C3CC3)C3CCC(F)(F)CC3)nc2c1)C1CC1 (single isomer, unassigned) [Example 466, 5-Cyclopropyl-N—((S)-(7-((R*)-cyclopropyl(4,4,4-trifluorobutanamido)methyl)imidazo[1,2-b]pyridazin-2-yl)(4,4-difluorocyclohexyl)methyl)-1,2,3-thiadiazole-4-carboxamide] | 210 | 
41 | O=C(CCC(F)(F)F)N[C@@H](c1cnn2cc([C@@H](NC(=O)c3cccc(C(F)F)c3)C3CCC(F)(F)CC3)nc2c1)C1CC1 [Example 170, N—((S)-(7-((R)-Cyclopropyl(4,4,4-trifluorobutanamido)methyl)imidazo[1,2-b]pyridazin-2-yl)(4,4-difluorocyclohexyl)methyl)-3-(difluoromethyl)benzamide] | 220 | 
320 | Cc1cncc(C(=O)N[C@H](c2cn3ncc([C@H](NC(=O)CCC(F)(F)F)C4CC4)cc3n2)C2CCC(F)(F)CC2)c1 [Example 454, N—((S)-(7-((R)-Cyclopropyl(4,4,4-trifluorobutanamido)methyl)imidazo[1,2-b]pyridazin-2-yl)(4,4-difluorocyclohexyl)methyl)-5-methylnicotinamide] | 3400 | 
33 | CCc1nocc1C(=O)N[C@H](c1cn2ncc([C@H](NC(=O)CCC(F)(F)F)C3CC3)cc2n1)C1CCC(F)(F)CC1 [Example 83, N—((S)-(7-((R)-Cyclopropyl(4,4,4-trifluorobutanamido)methyl)imidazo[1,2-b]pyridazin-2-yl)(4,4-difluorocyclohexyl)methyl)-3-ethylisoxazole-4-carboxamide] | 60 | 
8300 | O=C(CC1CC(F)(F)C1)NC(c1cnn2cc([C@@H](NC(=O)c3cnn(CCC(F)(F)F)c3)C3CCC(F)(F)CC3)nc2c1)C1CC1 (single isomer, unassigned) [Example 9, N—((S)-(7-((S*)-Cyclopropyl(2-(3,3-difluorocyclobutyl)acetamido)methyl)imidazo[1,2-b]pyridazin-2-yl)(4,4-difluorocyclohexyl)methyl)-1-(3,3,3-trifluoropropyl)-1H-pyrazole-4-carboxamide] |  | > 20000
5600 | Cc1noc(C(C)C)c1C(=O)N[C@H](c1cn2ncc([C@H](NC(=O)CCC(F)(F)F)C3CC3)cc2n1)C1CCC(F)(F)CC1 [Example 81, N—((S)-(7-((R)-Cyclopropyl(4,4,4-trifluorobutanamido)methyl)imidazo[1,2-b]pyridazin-2-yl)(4,4-difluorocyclohexyl)methyl)-5-isopropyl-3-methylisoxazole-4-carboxamide] | > 20000 | 
150 | N#Cc1cccc(C(=O)N[C@H](c2cn3ncc([C@H](NC(=O)CCC(F)(F)F)C4CC4)cc3n2)C2CCC(F)(F)CC2)c1 [Example 188, 3-Cyano-N—((S)-(7-((R)-cyclopropyl(4,4,4-trifluorobutanamido)methyl)imidazo[1,2-b]pyridazin-2-yl)(4,4-difluorocyclohexyl)methyl)benzamide] | 750 | 
57 | O=C(CCC(F)(F)F)N[C@@H](c1cnn2cc([C@@H](NC(=O)c3cncc(C4CC4)c3)C3CCC(F)(F)CC3)nc2c1)C1CC1 [Example 414, 5-Cyclopropyl-N—((S)-(7-((R)-cyclopropyl(4,4,4-trifluorobutanamido)methyl)imidazo[1,2-b]pyridazin-2-yl)(4,4-difluorocyclohexyl)methyl)nicotinamide] | 730 | 
5400 | O=C(CCC(F)(F)F)N[C@@H](c1cnn2cc([C@@H](NC(=O)[C@H]3C[C@H]3F)C3CCC(F)(F)CC3)nc2c1)C1CC1 [Example 97, (1R,2R)—N—((S)-(7-((R)-Cyclopropyl(4,4,4-trifluorobutanamido)methyl)imidazo[1,2-b]pyridazin-2-yl)(4,4-difluorocyclohexyl)methyl)-2-fluorocyclopropane-1-carboxamide] | > 20000 | 
